Results reported in patent publication US20090281127A1, “Organic Compounds” (priority 2006, published 2009).
Structures can show the parent of a compound that is named as a salt.

These compounds were tested against adenosine A2a receptor (Homo sapiens, UniProt P29274) (assay: adenosine A2a receptor agonist method of Murphree et al (Ki)). Conditions: method described by L. J. Murphree et al, Molecular Pharmacology 61, 455-462 (2002).
Type: binding
Procedure: Compounds of formula I and their pharmaceutically acceptable salts are useful as pharmaceuticals. In particular, they activate the adenosine A2a receptor activation, i.e. they act as A2a receptor agonists.
Compounds of the Examples hereinbelow have K; values below 1.0 μM in the above method. For example, the compounds of Examples 6, 10 and 15 have Ki values of 0.004, 0.005, and 0.009 μM respectively.

Sequence of adenosine A2a receptor (P29274 whole entry): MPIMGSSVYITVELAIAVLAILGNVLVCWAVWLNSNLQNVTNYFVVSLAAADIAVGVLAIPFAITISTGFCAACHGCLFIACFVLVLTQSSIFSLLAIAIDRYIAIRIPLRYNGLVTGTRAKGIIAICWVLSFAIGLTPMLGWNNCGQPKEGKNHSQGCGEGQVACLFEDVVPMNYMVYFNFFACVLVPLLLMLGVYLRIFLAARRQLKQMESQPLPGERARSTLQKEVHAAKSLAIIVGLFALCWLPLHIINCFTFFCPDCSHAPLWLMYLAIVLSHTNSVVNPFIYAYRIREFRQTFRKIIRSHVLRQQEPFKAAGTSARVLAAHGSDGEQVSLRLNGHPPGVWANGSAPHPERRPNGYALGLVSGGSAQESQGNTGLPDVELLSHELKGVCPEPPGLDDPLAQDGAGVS

Row | Ki | SMILES
1 | 4 nM | O=C(N[C@H]1C[C@@H](n2cnc3c(NCC(c4ccccc4)c4ccccc4)nc(N[C@H]4CCNC4)nc32)[C@H](O)[C@@H]1O)C1CCC1 [Example 6, Cyclobutanecarboxylic acid {(1S,2R,3S,4R)-4-[6-(2,2-diphenyl-ethylamino)-2-((S)-pyrrolidin-3-ylamino)-purin-9-yl]-2,3-dihydroxy-cyclopentyl}-amide hydrochloride]
2 | 9 nM | O=C(N[C@H]1C[C@@H](n2cnc3c(NCC(c4ccccc4)c4ccccc4)nc(N[C@@H]4CCN(C(=O)NC5CCN(c6ccccn6)CC5)C4)nc32)[C@H](O)[C@@H]1O)C1CCC1 [Example 15, (R)-3-[9-[(1R,2S,3R,4S)-4-(cyclobutanecarbonyl-amino)-2,3-dihydroxy-cyclopentyl]-6-(2,2-diphenyl-ethylamino)-9H-purin-2-ylamino]-pyrrolidine-1-carboxylic acid (3,4,5,6-tetrahydro-2H-[1,2′]bipyridinyl-4-yl)-amide trifluoroacetate]
3 | 5 nM | O=C(Nc1cccnc1)NC1CCN(c2nc(NCC(c3ccccc3)c3ccccc3)c3ncn(C4CC(NC(=O)C5CCC5)C(O)C4O)c3n2)C1 [Example 10, Cyclobutanecarboxylic acid ((1S,2R,3S,4R)-4-{6-(2,2-diphenyl-ethylamino)-2-[(R)-3-(3-pyridin-3-yl-ureido)-pyrrolidin-1-yl]-purin-9-y}-2,3-dihydroxy-cyclopentyl)-amide]
